Test system: mice
Conditions: mouse, in vivo

SMILES: CN1CC[C@]23c4c5ccc(O)c4O[C@H]2[C@@H](O)C=C[C@H]3[C@H]1C5 [morphine]
- period over which effect declines / returns to control levels: 5 h
- time of maximal effect: 1 h

— patent US7208466B1 (priority 1999, dated 2007)
